Data taken from article PMC9030166, “Natural Phaeosphaeride A Derivatives Overcome Drug Resistance of Tumor Cells and Modulate Signaling Pathways” (Pharmaceuticals, 2022).

Key:
p70S6K (pThr389/412) = experiment: MILLIPLEX MAP 9-Plex, p70S6K active form in A431 lysates; type: cell-based, human; conditions: A431 cell lysates, 10 μM, 1 h, M ± mx; control 39.9 ± 7.2
Description: We used the MILLIPLEX MAP Multi-Pathway Magnetic Bead 9-Plex-Cell Signaling Multiplex Assay, which allows the simultaneous detection of nine phosphorylated proteins that are markers of the main intracellular signaling pathways (phosphorylation site is indicated in parentheses), a universal transcription factor that controls the expression of immune response genes; apoptosis and cell cycle NFκB (pS536); cAMP-dependent transcription factor (CREB (pS133); mitogen-activated kinase p38 (pT180/pY182); stress-activated protein kinase JNK (pT183/pY185); ribosomal […]; transcription factors STAT3 (pS727) and STAT5A/B (pY694/699); protein kinase B (Akt) (pS473); and kinase regulated by extracellular signals ERK1/2 (pT185/pY187).
The effect of various concentrations of PPA derivatives on the cell culture was studied using xCelligence RTCA equipment (AceaBioscience, San Diego, CA, USA). The concentration closest to the IC50 (10 μM) was chosen as the experimental concentration. The selected concentration of phaeosphaeride A derivatives allows for the assessment of the early effect of compounds on cells and compares their effectiveness. In this experiment, the signaling pathways Akt (pSer473), p70S6K (pThr412), NFkB (p65-pSer536), and CREB (pSer133) were not activated (Table 8). The stress-activated signaling pathways ERK/MAP kinase 1/2 (pThr185/pTyr187), JNK (pThr183/pTyr185), and p38 (pThr180/pTyr182) were activated for these compounds.
We used a MILLIPLEX MAP Multi-Pathway Magnetic Bead 9-Plex-Cell Signaling Multiplex Assay kit (Merck/Millipore), according to the manufacturer’s protocol. A431 cells were cultured in DMEM with 10% FBS in 24-well plates. Compounds were added to the subconfluent cells at a concentration of 10 μM in DMEM medium for 1 h. Each compound was added in 5 experimental repeats. Cell lysates were prepared with lysis buffer (Millipore) with protease inhibitors (Complete, Roche); the protein concentration in the lysates was determined by the Lowry method. In samples equalized in protein concentration, the active forms of kinase cascades were determined using a Bio-Plex 200 fluorescent analyzer (Bio-Rad).

HBL-100/Dox = experiment: MTT cytotoxicity, resistant HBL-100/Dox cells; type: cell-based, human; conditions: for IC50: Homo sapiens, HBL-100, resistant version, MTT, 48 h; for resistance of HBL-100/Dox cells relative to HBL-100: ratio of IC50 values, Table 5
Description: At the next stage, the cytotoxic activity of compounds 1, 2, and 9 (Scheme 2) was investigated on several pairs of cell lines that differ in the expression of P-gp and the method by which they were obtained. […] K562/i-S9_Dox cells were obtained from K562/i-S9 by selection with low concentrations of doxorubicin to increase P-gp expression.
Modifications of cell lines: K562/i-S9 is a clone obtained after transfection of K562 cells with the ABCB1 (MDR1) gene-encoding P-glycoprotein [36]. Cells HBL-100/Dox and K562/i-S9_Dox are cells obtained by long-term selection with increasing concentrations of doxorubicin (Sigma-Aldrich, St. Louis, MO, USA) from HBL-100 and K562/i-S9 cells, respectively. MCF-7, A594 cells, and primary cultures of soft tissue sarcomas were cultured in DMEM medium (PanEko, Russia), PC-3 and HCT-116 cells and all suspension cultures in RPMI1640 medium (PanEko, Russia) supplemented with 10% fetal bovine serum (GE Healthcare LifeSciences, USA), and gentamicin at a concentration of 40 μg/mL at 37 °C and 5% CO2.
Cells MCF-7, PC-3, A549, and HCT-116, and primary cultures of STSwere seeded in 96-well plates, 6 × 10^3 cells per well in 90 μL of culture medium. Suspension cultures were seeded at a concentration of 25 × 10^3 cells per well in 135 μL of medium. The test substances were dissolved in DMSO (Applichem, Council Bluffs, IA, USA) until a concentration of 1 × 10^−^2 M was obtained; for the subsequent dilution of the substances, a serum-free culture medium was used. The next day, for adhesive cultures, and on the same day, for suspension cultures, substances were added to the plates in a volume of 10 μL (adhesive cultures) and 15 μL (suspension cultures) per well at various concentrations; each concentration was added in 3–4 repetitions. The cells were cultured in the presence of substances for 48 h. Then, MTT reagent (PanEko, Moscow, Russia) was added to the wells at a concentration of 5 mg/mL in a volume of 20 μL per well. After 1.5–2 h, the medium with the reagent was removed, and the precipitate of the crystals of formazan was dissolved in 60 μL of DMSO. The optical density was determined using a Multiskan FC spectrophotometer (Thermo Scientific, Waltham, MA, USA) at a wavelength of 540 nm.
The experiments were carried out in 3–4 times.

Row | Compound | p70S6K (pThr389/412) fluorescence intensity (p70S6K (pThr389/412)) | IC50 (HBL-100/Dox) | resistance of HBL-100/Dox cells relative to HBL-100 (HBL-100/Dox)
1 | C=C1C2=C(C(=O)N1OC)[C@@H](N1CCCC1)[C@@](C)(O)[C@H](CCCCC)O2 [Compound 1] | 51.7 ± 4.8 rel. units | 7.6 ± 0.6 µM | no difference in resistance
2 | C=C1C2=C(C(=O)N1OC)[C@@H](N(C)C)[C@@](C)(O)[C@H](CCCCC)O2 [Compound 2, (2S,3R,4R)-4-(dimethylamino)-3-hydroxy-6-methoxy-3-methyl-7-methylene-2-pentyl-3,4,6,7-tetrahydropyrano[2,3-c]pyrrol-5(2H)-one] | 56.9 ± 9.9 rel. units | 6.6 ± 1.2 µM | no difference in resistance
3 | C=C1C2=C(C(=O)N1OC)[C@@H](N(CCCC)CCCC)[C@@](C)(O)[C@H](CCCCC)O2 [Compound 5, (2S,3R,4R)-4-(dibutylamino)-3-hydroxy-6-methoxy-3-methyl-7-methylene-2-pentyl-3,4,6,7-tetrahydropyrano[2,3-c]pyrrol-5(2H)-one] | 70.6 ± 9.2 *↑ rel. units | – | –
4 | C=C1C2=C(C(=O)N1OC)[C@@H](N(CC)CCO)[C@@](C)(O)[C@H](CCCCC)O2 [Compound 9, (2S,3R,4R)-4-[ethyl(2-hydroxyethyl)amino]-3-hydroxy-6-methoxy-3-methyl-7-methylene-2-pentyl-3,4,6,7-tetrahydropyrano[2,3-c]pyrrol-5(2H)-one] | 38.8 ± 7.4 rel. units | 8.4 ± 0.4 µM | tendency towards a slightly higher resistance
5 | CCCCC[C@@H]1OC2=C(C(=O)N(OC)/C2=C\n2cnnc2)C(n2cnnc2)[C@@]1(C)O (some centres unmarked) [Compound 10] | 53.4 ± 4.0 rel. units | – | –
